Laboratory results as given in patent publication US9707234B2, “Spirocyclic hetercycle compounds useful as HIV integrase inhibitors” (MERCK SHARP & DOHME CORP., priority 2013, dated 2017).
Like-named read-outs stand apart in the source and are kept apart here.

Test system: HIV-1 (H9IIIB or NL4-3 virus) replication in MT4-GFP cells
Test: microbe, parasite or virus in culture
Format: cell-based
Conditions: inhibition of reproductive ratio R0, 48-72 h post-infection
[1] = MT4-GFP cells infected with HIV-1, 100% normal human serum, read-out: ViKinG IP (nM) with 100% NHS
[2] = Human immunodeficiency virus 1, NL43, MT4-GFP cells infected with HIV-1, 100% normal human serum, read-out: ViKinG IP (nM) with 100% NHS
[3] = Human immunodeficiency virus 1, NL43, MT4-GFP cells infected with HIV-1, serum free conditions (0% NHS), read-out: ViKinG IP (nM) with 0% NHS
[4] = MT4-GFP cells infected with HIV-1, serum free conditions (0% NHS), read-out: ViKinG IP (nM) with 0% NHS
[5] = Human immunodeficiency virus 1, NL43, MT4-GFP cells infected with HIV-1, 10% normal human serum, read-out: ViKinG IP (nM) with 10% NHS

| Structure (SMILES) | IC50 [1] [nM] | IC50 [2] [nM] | IC50 [3] [nM] | IC50 [4] [nM] | IC50 [5] [nM] |
| --- | --- | --- | --- | --- | --- |
| CN1C(=O)c2c(O)c(=O)c(C(=O)NCc3ccc(F)cc3F)cn2N(Cc2ccccc2)C12CCOC2 (single isomer, unassigned) [Compound 163] | 35 |  |  |  |  |
| CN1C(=O)c2c(O)c(=O)c(C(=O)NCc3ccc(F)cc3F)cn2N(CCCC(F)(F)F)C12CCOC2 (single isomer, unassigned) [Compound 164] |  | 178 |  |  |  |
| CN1C(=O)c2c(O)c(=O)c(C(=O)NCc3ccc(F)cc3F)cn2N(CCCC(F)(F)F)C12CCOC2 (single isomer, unassigned) [Compound 165] | 146 |  |  |  |  |
| CN1C(=O)c2c(O)c(=O)c(C(=O)NCc3ccc(F)cc3F)cn2N(C)C12CCNC2 (single isomer, unassigned) [Compound 169] | 512 |  | 4.4 |  |  |
| CN1C(=O)c2c(O)c(=O)c(C(=O)NCc3ccc(F)cc3F)cn2N(C)C12CCNC2 (single isomer, unassigned) [Compound 170] | 66 |  |  | 5 |  |
| CCN1C(=O)c2c(O)c(=O)c(C(=O)NCc3ccc(F)cc3F)cn2N(C)C12CCNC2 (single isomer, unassigned) [Compound 171] |  | 88 | 1.8 |  |  |
| CCN1C(=O)c2c(O)c(=O)c(C(=O)NCc3ccc(F)cc3F)cn2N(C)C12CCNC2 (single isomer, unassigned) [Compound 172] | 61 |  |  | 1.6 |  |
| CCOC(=O)N1CCC2(CC1)N(CC)C(=O)c1c(O)c(=O)c(-c3nnc(Cc4ccc(F)cc4)s3)cn1N2C [Compound 5] |  | 250 | 16.4 |  | 22 |
| CCOC(=O)N1CCC2(CC1)N(CC)C(=O)c1c(O)c(=O)c(-c3nnc(Cc4ccc(F)cc4F)s3)cn1N2C [Compound 6] |  | 159 |  |  | 13 |
| CCCN1C(=O)c2c(O)c(=O)c(-c3nnc(Cc4ccc(F)cc4F)s3)cn2N(C)C12CCN(C(=O)OCC)CC2 [Compound 7] |  | 148 | 29.9 |  | 58 |
| CCN1C(=O)c2c(O)c(=O)c(-c3nnc(Cc4ccc(F)cc4F)s3)cn2N(C)C12CCN(C(=O)OC)CC2 [Compound 8] |  | 131 | 5.5 |  |  |
| CCN1C(=O)c2c(O)c(=O)c(-c3nnc(Cc4ccc(F)cc4F)s3)cn2N(C)C12CCN(C(=O)OC(C)C)CC2 [Compound 9] |  | 344 | 89.7 |  |  |
| CCN1C(=O)c2c(O)c(=O)c(-c3nnc(Cc4ccc(F)cc4F)s3)cn2N(C)C12CCN(C(C)=O)CC2 [Compound 10] |  | 1500 |  |  | 57 |
| CCN1C(=O)c2c(O)c(=O)c(-c3nnc(Cc4ccc(F)cc4)s3)cn2N(C)C12CCN(C(=O)OCc1ccccc1)CC2 [Compound 11] |  | 359 |  |  | 31 |
| CCN1C(=O)c2c(O)c(=O)c(-c3nnc(Cc4ccc(F)cc4F)s3)cn2N(C)C12CCN(S(C)(=O)=O)CC2 [Compound 12] |  | 126 |  |  | 24 |
| CCN1C(=O)c2c(O)c(=O)c(-c3nnc(Cc4ccc(F)cc4F)s3)cn2N(C)C12CCN(S(=O)(=O)N(C)C)CC2 [Compound 13] |  | 106 | 8.6 |  | 14 |
| CCN1C(=O)c2c(O)c(=O)c(-c3nnc(Cc4ccc(F)cc4F)s3)cn2N(C)C12CCN1C(=O)CCC1C2 (centres unmarked) [Compound 14] |  |  |  |  | 41 |
| CCN1C(=O)c2c(O)c(=O)c(-c3nnc(Cc4ccc(F)cc4F)s3)cn2N(C)C12CCSCC2 [Compound 15] |  | 3140 | 8 |  | 178 |
| CCN1C(=O)c2c(O)c(=O)c(-c3nnc(Cc4ccc(F)cc4F)s3)cn2N(C)C12CCS(=O)(=O)CC2 [Compound 16] |  |  | 17.3 |  | 47 |
| CCN1C(=O)c2c(O)c(=O)c(-c3nnc(Cc4ccc(F)cc4F)s3)cn2N(C)C12CCN(c1ncccn1)CC2 [Compound 17] |  | 1520 | 29.3 |  |  |
| CCOC(=O)N1CCC2(CC1)N(C)C(=O)c1c(O)c(=O)c(-c3nnc(Cc4ccc(F)cc4)s3)cn1N2C [Compound 18] |  | 254 |  |  | 13 |
| CCOC(=O)N1CCC2(CC1)N(C)C(=O)c1c(O)c(=O)c(-c3nnc(Cc4ccc(F)cc4F)s3)cn1N2C [Compound 19] |  | 133 |  |  | 9 |
| C[C@@H]1CC2(CCN1C(=O)OCc1ccccc1)N(C)C(=O)c1c(O)c(=O)c(-c3nnc(Cc4ccc(F)cc4F)s3)cn1N2C (some centres unmarked) [Compound 20] |  |  |  |  | 234 |
| C[C@H]1CC2(CCN1C(=O)OCc1ccccc1)N(C)C(=O)c1c(O)c(=O)c(-c3nnc(Cc4ccc(F)cc4F)s3)cn1N2C (some centres unmarked) [Compound 21] |  |  |  |  | 141 |
| CN1C(=O)c2c(O)c(=O)c(-c3nnc(Cc4ccc(F)cc4F)s3)cn2N(C)C12CCOCC2 [Compound 22] |  | 731 |  |  | 47 |
| CC(=O)N1CCC2(CC1)N(C)C(=O)c1c(O)c(=O)c(-c3nnc(Cc4ccc(F)cc4F)s3)cn1N2C [Compound 23] |  |  |  |  | 100 |
| CN1C(=O)c2c(O)c(=O)c(-c3nnc(Cc4ccc(F)cc4F)s3)cn2N(C)C12CCN(S(=O)(=O)N(C)C)CC2 [Compound 24] |  | 86 | 11.9 |  | 6 |

| Structure (SMILES) | IC50 [1] [nM] | IC50 [2] [nM] | IC50 [3] [nM] | IC50 [4] [nM] | IC50 [5] [nM] |
| --- | --- | --- | --- | --- | --- |
| CN1C(=O)c2c(O)c(=O)c(-c3nnc(Cc4ccc(F)cc4F)s3)cn2N(C)C12CCSCC2 [Compound 25] |  | 257 | 5.3 |  | 17 |
| CN1C(=O)c2c(O)c(=O)c(-c3nnc(Cc4ccc(F)cc4F)s3)cn2N(C)C12CCN(S(C)(=O)=O)CC2 [Compound 26] |  | 161 | 11.5 |  | 26 |
| CN1C(=O)c2c(O)c(=O)c(-c3nnc(Cc4ccc(F)cc4F)s3)cn2N(C)C12CCS(=O)(=O)CC2 [Compound 27] |  | 712 | 21.2 |  | 72 |
| CN1C(=O)c2c(O)c(=O)c(-c3nnc(Cc4ccc(F)cc4F)s3)cn2N(C)C12CCNC(=O)CC2 (centres unmarked) [Compound 28] |  | 679 | 53.5 |  | 122 |
| CN1C(=O)c2c(O)c(=O)c(-c3nnc(Cc4ccc(F)cc4F)s3)cn2N(C)C12CCN(C(N)=O)CC2 [Compound 29] |  | 2080 | 89.1 |  |  |
| CN1C(=O)c2c(O)c(=O)c(-c3nnc(Cc4ccc(F)cc4F)s3)cn2N(C)C12CCN(c1ccccn1)CC2 [Compound 30] |  | 280 | 38.5 |  |  |
| CCN1C(=O)c2c(O)c(=O)c(-c3nnc(Cc4ccc(F)cc4F)s3)cn2N(C)C12CCNCC2 [Compound 32] |  | 74 | 8 |  |  |
| CCN1C(=O)c2c(O)c(=O)c(-c3nnc(Cc4ccc(F)cc4)s3)cn2N(C)C12CCNCC2 [Compound 33] |  | 89 |  |  | 49 |
| CN1C(=O)c2c(O)c(=O)c(-c3nnc(Cc4ccc(F)cc4F)s3)cn2N(C)C12CCCNCC2 (centres unmarked) [Compound 34] |  |  | 9.7 |  | 34 |
| CCN1C(=O)c2c(O)c(=O)c(-c3nnc(Cc4ccc(F)cc4F)s3)cn2N(C)C12CCCOC2 (centres unmarked) [Compound 37] |  | 456 | 5.3 |  |  |
| CN1C(=O)c2c(O)c(=O)c(-c3nnc(Cc4ccc(F)cc4)s3)cn2N(C)C12CCOC2 (centres unmarked) [Compound 38] |  | 132 | 3.8 |  |  |
| CN1C(=O)c2c(O)c(=O)c(C(=O)NCc3ccc(F)cc3F)cn2CC12CCOCC2 [Compound 39] |  | 49 | 4.2 |  |  |
| CCN1C(=O)c2c(O)c(=O)c(C(=O)NCc3ccc(F)cc3F)cn2CC12CCOCC2 [Compound 40] |  | 236 | 2.8 |  |  |
| CCCN1C(=O)c2c(O)c(=O)c(C(=O)NCc3ccc(F)cc3F)cn2CC12CCOCC2 [Compound 41] |  | 7800 | 11.2 |  |  |
| COCCN1C(=O)c2c(O)c(=O)c(C(=O)NCc3ccc(F)cc3F)cn2CC12CCOCC2 [Compound 42] |  | 234 | 2.4 |  |  |
| COCCCN1C(=O)c2c(O)c(=O)c(C(=O)NCc3ccc(F)cc3F)cn2CC12CCOCC2 [Compound 43] |  | 39 | 3 |  |  |
| CCOCCN1C(=O)c2c(O)c(=O)c(C(=O)NCc3ccc(F)cc3F)cn2CC12CCOCC2 [Compound 44] |  | 57 | 5.8 |  |  |
| CCCCCN1C(=O)c2c(O)c(=O)c(C(=O)NCc3ccc(F)cc3F)cn2CC12CCOCC2 [Compound 45] |  | 236 | 6.4 |  |  |
| O=C(NCc1ccc(F)cc1F)c1cn2c(c(O)c1=O)C(=O)N(CCCC(F)(F)F)C1(CCOCC1)C2 [Compound 46] |  | 110 | 3.2 |  |  |
| O=C(NCc1ccc(F)cc1F)c1cn2c(c(O)c1=O)C(=O)N(CCCCC(F)(F)F)C1(CCOCC1)C2 [Compound 47] |  | 71 | 6.6 |  |  |
| COCc1c(C(=O)NCc2ccc(F)cc2F)c(=O)c(O)c2n1CC1(CCOC1)N(C)C2=O (centres unmarked) [Compound 48] |  | 194 | 124 |  |  |
| CN1C(=O)c2c(O)c(=O)c(C(=O)NCc3ccc(F)c(Cl)c3F)cn2CC12CCOC2 (centres unmarked) [Compound 55] |  | 30 | 0.6 |  |  |
| CN1C(=O)c2c(O)c(=O)c(C(=O)NCc3ccc(F)cc3F)cn2CC12COC2 [Compound 68] |  | 134 | 7.6 |  |  |
| CCN1C(=O)c2c(O)c(=O)c(C(=O)NCc3ccc(F)cc3F)cn2CC12COC2 [Compound 69] |  | 452 | 3.5 |  |  |
| COCCN1C(=O)c2c(O)c(=O)c(C(=O)NCc3ccc(F)cc3F)cn2CC12COC2 [Compound 70] |  | 91 | 2.5 |  |  |
| CCN1C(=O)c2c(O)c(=O)c(C(=O)NCc3ccc(F)cc3F)cn2CC12CCCOC2 (centres unmarked) [Compound 81] | 323 |  | 4.3 |  |  |
| CCN1C(=O)c2c(O)c(=O)c(C(=O)NCc3ccc(F)cc3F)cn2CC12CCCOC2 (centres unmarked) [Compound 82] | 680 |  |  | 3.1 |  |
